Test results as given in patent publication US20230256039A1, “COMPOSITIONS AND METHODS TO INCREASE PRODUCTION OF HYDROXYTYROSOL” (priority 2022, published 2023).

Assays:
[1] = tested on: Lactobacillus pentosus strain OL79; conditions: MIC cutoff values for Lactobacillus pentosus strain OL79; cited from earlier work
[2] = tested on: Lactobacillus pentosus strain OL79; test: Minimum inhibitory concentration (MIC) antibiotic susceptibility of strain OL79; assay type: cell-based; conditions: MIC of antibiotic against strain OL79 versus EFSA cutoff

Compound | EFSA Break Point [1] [mg/L] | Susceptibility [2]
CC1(C)S[C@@H]2[C@H](NC(=O)[C@H](N)c3ccccc3)C(=O)N2[C@H]1C(=O)O [Ampicillin] | 2 | sensitive
O=C(N[C@H](CO)[C@H](O)c1ccc([N+](=O)[O-])cc1)C(Cl)Cl [Chloramphenicol] | 8 | sensitive
CC[C@H]1OC(=O)[C@H](C)[C@@H](O[C@H]2C[C@@](C)(OC)[C@@H](O)[C@H](C)O2)[C@H](C)[C@@H](O[C@@H]2O[C@H](C)C[C@H](N(C)C)[C@H]2O)[C@](C)(O)C[C@@H](C)C(=O)[C@H](C)[C@@H](O)[C@]1(C)O [Erythromycin] | 1 | sensitive
Gentamycin | 16 | sensitive
